pIC50: −log10 of the molar value.
Key:
[1] = biological target: HDAC 3 (Homo sapiens, UniProt O15379); assay: Fluorescence-based HDAC isoform assay with electrophoretic separation, HDAC 3 (coexpressed with SMRT fragment); type: biochemical; conditions: HDAC3 coexpressed with SMRT fragment (residues 395-489), 1 μM FAM-labeled acetylated peptide, 17 h at 25° C.
Description: (§1) The inhibitory effects of the compounds of Examples 7 and 9 above on HDAC activity were determined using a fluorescence-based assay with electrophoretic separation of substrate and product carried out using a microfluidic system followed by quantitation of fluorescence intensity in the substrate and product peaks.
(§2) The assays were performed using isolated HDAC isoforms that had been expressed as 6×His-tagged fusion proteins in a baculovirus expression system in Sf9 cells. HDACs 1, 2, 3, 6, and 8 were expressed as full length fusion proteins. For HDAC-4 and 7 only catalytic domains were expressed (HDAC-4 CAT and HDAC-7 CAT). The HDAC10 fusion protein was expressed as a carboxy-terminal deletion of 38 amino acids (residues 632-669). HDAC3 was coexpressed with a fragment of the SMRT gene (residues 395-489) to generate enzymatically active protein. Purified proteins were incubated with 1 μM carboxyfluorescein (FAM)-labeled acetylated peptide substrate and test compound for 17 h at 25° C. in HDAC assay buffer containing 100 mM HEPES (pH 7.5), 25 mM KCl, 0.1% BSA, and 0.01% Triton X-100. […] Substrate and product were separated electrophoretically using a Caliper LabChip 3000 system with blue laser excitation and green fluorescence detection (CCD2). The fluorescence intensity in the substrate and product peaks was determined using the Well Analyzer software on the Caliper system. […]

[2] = biological target: T1, HDAC 10 (Homo sapiens, UniProt Q969S8); assay: Fluorescence-based HDAC isoform assay with electrophoretic separation, HDAC 10; type: biochemical; conditions: carboxy-terminal deletion of 38 amino acids, 1 μM FAM-labeled acetylated peptide, 17 h at 25° C.
T1 construct: 6xHis; made in house; host or cells: Sf9 cells (baculovirus)
T1 sequence (Q969S8 1-631): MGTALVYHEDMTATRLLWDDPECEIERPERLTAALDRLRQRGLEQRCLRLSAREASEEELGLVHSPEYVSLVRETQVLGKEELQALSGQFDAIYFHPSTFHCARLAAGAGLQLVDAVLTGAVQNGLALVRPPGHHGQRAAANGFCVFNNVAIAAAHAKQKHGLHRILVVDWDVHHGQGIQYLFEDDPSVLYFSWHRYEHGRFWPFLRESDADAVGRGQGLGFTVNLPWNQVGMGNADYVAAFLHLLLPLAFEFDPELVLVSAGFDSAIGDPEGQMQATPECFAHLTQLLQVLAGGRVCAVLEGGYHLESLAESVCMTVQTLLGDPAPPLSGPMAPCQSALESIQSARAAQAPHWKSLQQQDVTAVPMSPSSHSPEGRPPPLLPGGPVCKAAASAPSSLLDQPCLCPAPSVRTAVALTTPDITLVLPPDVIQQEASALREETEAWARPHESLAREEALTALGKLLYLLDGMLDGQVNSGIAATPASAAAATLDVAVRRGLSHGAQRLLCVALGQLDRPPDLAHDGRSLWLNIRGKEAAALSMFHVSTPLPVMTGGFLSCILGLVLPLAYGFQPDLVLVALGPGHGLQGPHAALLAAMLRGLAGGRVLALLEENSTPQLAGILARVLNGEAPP
Description: as §1, §2

[3] = biological target: T2, HDAC 8 (Homo sapiens, UniProt Q9BY41); assay: Fluorescence-based HDAC isoform assay with electrophoretic separation, HDAC 8; type: biochemical; conditions: isolated 6×His-tagged isoform, 1 μM FAM-labeled acetylated peptide, 17 h at 25° C.
T2 construct: HDACs 1, 2, 3, 6, and 8 were expressed as full length fusion proteins; 6xHis; made in house; host or cells: Sf9 cells (baculovirus)
T2 sequence (Q9BY41 1-377): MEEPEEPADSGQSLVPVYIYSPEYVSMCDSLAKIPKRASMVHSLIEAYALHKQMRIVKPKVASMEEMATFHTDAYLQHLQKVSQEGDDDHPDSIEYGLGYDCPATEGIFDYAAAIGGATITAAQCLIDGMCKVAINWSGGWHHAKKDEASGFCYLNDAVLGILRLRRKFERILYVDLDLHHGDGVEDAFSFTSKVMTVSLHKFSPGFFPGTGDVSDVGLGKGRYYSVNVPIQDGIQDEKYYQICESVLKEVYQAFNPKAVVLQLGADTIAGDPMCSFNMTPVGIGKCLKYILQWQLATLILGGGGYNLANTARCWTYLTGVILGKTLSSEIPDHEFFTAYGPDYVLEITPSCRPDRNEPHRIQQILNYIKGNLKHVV
Description: as §1, §2

[4] = tested on: CYP26 RNA expression in HL60 cells; assay: CYP26 RNA expression in HL60 cells (Q-RT-PCR); type: cell-based
Description: (§3) HL60 or NB4 cells were cultured at 1.0×10^6 cells/ml in complete growth medium. Cells (10 ml) were then treated with ATRA, the compound of Example 7(MI-192), or left untreated as controls. After 1 day, the expression of CYP26 and BACT RNAs were determined using quantitative PCR (Taqman). The expression of CYP26 RNA was normalised to BACT, and expression in control cells was set to 1.0.

[5] = tested on: HL60 cells; assay: CD11b flow cytometry, differentiation in HL60 cells; type: cell-based; conditions: 3 days
Description: HL60 cells were cultured at 0.5×10^6 cells/ml in complete growth medium. Cells (2 ml) were then treated with ATRA (sourced commercially), the compound of Example 7 (MI-192), or left untreated as controls. After 3 days, CD11b expression was determined by flow cytometry using a PE-conjugated anti-CD11b monoclonal antibody.

[6] = tested on: HL60 cells; assay: MTS assay, growth inhibition in HL60 cells; type: cell-based; conditions: after 3 days (FIG. 2(i) legend: 4 day), absorbance 490 nm relative to untreated cells
Description: HL60 or NB4 cells were diluted in complete growth medium and plated at a density of 5000 cells per 0.1 ml in wells of a 96 well plate. Cells were then treated with various concentrations of the compound of Example 7 (MI-192) or were left untreated as a control in a total volume of 0.2 ml of complete growth medium. After 3 days, relative cell numbers were determined using the MTS assay, as described by the manufacturer (Promega, Southampton, UK). The results shown in FIG. 2(i) are absorbance (490 nm) relative to control cells (untreated cells 100%).

[7] = tested on: CYP26 RNA expression in NB4 cells; assay: CYP26 RNA expression in NB4 cells (Q-RT-PCR); type: cell-based; conditions: 1 day, normalised to BACT, control set to 1.0
Description: as §3

Sequence of HDAC 3 (O15379 whole entry, species assumed, the tested form may be a part, canonical isoform): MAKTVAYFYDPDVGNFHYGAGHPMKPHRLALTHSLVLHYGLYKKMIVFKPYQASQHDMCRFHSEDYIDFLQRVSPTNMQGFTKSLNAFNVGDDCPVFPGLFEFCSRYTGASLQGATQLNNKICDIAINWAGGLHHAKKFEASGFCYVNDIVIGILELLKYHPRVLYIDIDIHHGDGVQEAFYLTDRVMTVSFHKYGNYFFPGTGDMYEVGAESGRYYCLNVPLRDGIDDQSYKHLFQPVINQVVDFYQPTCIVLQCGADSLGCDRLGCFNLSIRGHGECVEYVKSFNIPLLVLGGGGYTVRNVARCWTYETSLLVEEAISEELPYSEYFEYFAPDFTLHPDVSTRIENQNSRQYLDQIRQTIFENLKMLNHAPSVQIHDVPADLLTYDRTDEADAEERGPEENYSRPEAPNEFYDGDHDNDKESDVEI
Sequence of HDAC 3 (Q9Y618 395-489 partner limits assumed, species assumed): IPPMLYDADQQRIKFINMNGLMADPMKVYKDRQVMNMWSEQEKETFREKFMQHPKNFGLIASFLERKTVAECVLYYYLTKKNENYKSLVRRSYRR

pIC50 [1] | pIC50 [2] | pIC50 [3] | SMILES | transcription modulating activity compared with ATRA [4] | CYP26 RNA expression ([4]; 1 day, Q-RT-PCR, normalised to BACT, control set to 1.0) | differentiation (CD11b expression, flow cytometry) [5] | growth inhibition (MTS assay) [6] | CYP26 RNA expression [7]
6.10 | < 4.52 | < 4.52 | C=C1CN(Cc2ccc(C(=O)Nc3ccccc3N)cc2)C(CC(=O)O)c2ccccc21 (centres unmarked) [Example 9, [2-(4-{[(2-Aminophenyl)amino]carbonyl}benzyl)-4-methylene-1,2,3,4-tetra hydroisoquinolin-1-yl]acetic acid] |  |  |  |  | 
7.54 | 5.09 | < 4.52 | C=C1CN(Cc2ccc(C(=O)Nc3ccccc3N)cc2)C(=O)c2ccccc21 [Example 7, N-(2-Aminophenyl)-4-[(4-methylene-1-oxo-3,4-dihydroisoquino-2(1H)-yl)methyl]benzamide] | exceeded that of ATRA | induces expression of CYP26 | promotes growth inhibition and differentiation | promotes growth inhibition | induces expression of CYP26

Reference: patent publication US20140135327A1, “N- (2 -AMINOPHENYL) BENZAMIDE DERIVATIVES AS HISTONE DEACETYLASE INHIBITORS” (CANCER RESEARCH TECHNOLOGY LIMITED, priority 2011, published 2014)
